According to patent US20240208968A1, “ALPHA V BETA 6 AND ALPHA V BETA 1 INTEGRIN INHIBITORS AND USES THEREOF” (DiCE Molecules SV, Inc., priority 2021, published 2024):

Key:
[1] = target: αvβ1 (Homo sapiens, UniProt P05556+P06756); assay: Solid Phase Integrin αvβ1 Assay; type: binding
Procedure, shortened: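 Wells coated with 1 µg/mL recombinant TGFb1-LAP and blocked with 2% BSA/TBST, 1 mM MnCl2; αvβ1 (added at 0.2 µg/mL) and compound incubated 90 min at room temperature. Bound integrin detected by streptavidin-HRP (20 min) and TMB after Mn-containing washes; IC50 by four-parameter logistic fit.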

[2] = target: αvβ6 (Homo sapiens, UniProt P06756+P18564); assay: Solid Phase Integrin αvβ6 Assay; type: binding
Sequence of αvβ6 (P06756 31-992 limits assumed): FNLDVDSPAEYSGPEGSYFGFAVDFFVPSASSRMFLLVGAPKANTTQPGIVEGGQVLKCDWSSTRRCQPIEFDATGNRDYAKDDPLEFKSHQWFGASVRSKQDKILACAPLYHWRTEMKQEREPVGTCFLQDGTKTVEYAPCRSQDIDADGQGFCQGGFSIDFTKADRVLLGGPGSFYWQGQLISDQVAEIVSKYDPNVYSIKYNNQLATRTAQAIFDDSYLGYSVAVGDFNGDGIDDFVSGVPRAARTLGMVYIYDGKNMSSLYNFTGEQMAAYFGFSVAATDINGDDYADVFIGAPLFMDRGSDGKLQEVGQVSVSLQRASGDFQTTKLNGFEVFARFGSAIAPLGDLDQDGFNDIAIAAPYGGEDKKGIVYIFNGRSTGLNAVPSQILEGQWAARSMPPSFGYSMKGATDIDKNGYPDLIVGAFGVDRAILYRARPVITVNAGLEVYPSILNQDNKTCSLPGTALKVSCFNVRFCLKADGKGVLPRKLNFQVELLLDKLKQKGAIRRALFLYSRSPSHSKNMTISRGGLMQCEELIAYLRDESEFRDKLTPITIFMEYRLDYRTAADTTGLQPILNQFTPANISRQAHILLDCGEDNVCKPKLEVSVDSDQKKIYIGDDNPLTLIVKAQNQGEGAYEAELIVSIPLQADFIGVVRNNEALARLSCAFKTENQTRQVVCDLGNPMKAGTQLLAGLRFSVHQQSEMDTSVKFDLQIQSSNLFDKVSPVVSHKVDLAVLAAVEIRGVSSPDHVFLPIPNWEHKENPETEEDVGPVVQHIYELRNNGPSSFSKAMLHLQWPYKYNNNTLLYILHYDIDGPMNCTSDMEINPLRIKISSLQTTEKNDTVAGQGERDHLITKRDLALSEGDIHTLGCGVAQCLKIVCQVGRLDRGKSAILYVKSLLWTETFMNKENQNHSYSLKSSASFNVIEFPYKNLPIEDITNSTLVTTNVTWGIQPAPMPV
Sequence of αvβ6 (P18564 22-707 limits assumed): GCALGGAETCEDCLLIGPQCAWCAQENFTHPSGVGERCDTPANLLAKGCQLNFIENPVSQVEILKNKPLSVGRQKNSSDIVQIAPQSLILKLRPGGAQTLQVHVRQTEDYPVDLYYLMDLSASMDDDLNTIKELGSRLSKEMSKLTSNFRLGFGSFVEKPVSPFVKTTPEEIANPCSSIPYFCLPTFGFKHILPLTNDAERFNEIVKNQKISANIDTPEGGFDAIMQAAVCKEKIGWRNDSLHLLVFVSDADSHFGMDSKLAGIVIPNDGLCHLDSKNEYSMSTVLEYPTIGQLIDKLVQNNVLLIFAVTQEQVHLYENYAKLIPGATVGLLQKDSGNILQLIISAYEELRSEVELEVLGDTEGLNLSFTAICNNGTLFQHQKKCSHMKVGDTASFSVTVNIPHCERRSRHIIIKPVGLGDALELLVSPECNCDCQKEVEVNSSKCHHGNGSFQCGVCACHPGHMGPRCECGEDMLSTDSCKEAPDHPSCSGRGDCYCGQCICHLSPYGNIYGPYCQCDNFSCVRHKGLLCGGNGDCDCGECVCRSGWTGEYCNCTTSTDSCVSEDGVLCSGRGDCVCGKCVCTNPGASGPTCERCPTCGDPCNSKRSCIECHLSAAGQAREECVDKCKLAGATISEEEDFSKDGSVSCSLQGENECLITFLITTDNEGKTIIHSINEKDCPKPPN
Procedure, shortened: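 Plates coated with 1 μg/mL recombinant TGFb1-LAP; compounds and αvβ6 (0.2 μg/mL diluted stock) incubated 1 h at room temperature in 2% BSA/TBST with 1 mM MnCl2. Bound integrin detected with streptavidin-HRP and TMB; IC50 from four-parameter logistic fits.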

Sequence of αvβ1 (P06756 31-992 limits assumed): as the sequence (P06756 31-992 limits assumed) above
Sequence of αvβ1 (P05556 21-728 limits assumed): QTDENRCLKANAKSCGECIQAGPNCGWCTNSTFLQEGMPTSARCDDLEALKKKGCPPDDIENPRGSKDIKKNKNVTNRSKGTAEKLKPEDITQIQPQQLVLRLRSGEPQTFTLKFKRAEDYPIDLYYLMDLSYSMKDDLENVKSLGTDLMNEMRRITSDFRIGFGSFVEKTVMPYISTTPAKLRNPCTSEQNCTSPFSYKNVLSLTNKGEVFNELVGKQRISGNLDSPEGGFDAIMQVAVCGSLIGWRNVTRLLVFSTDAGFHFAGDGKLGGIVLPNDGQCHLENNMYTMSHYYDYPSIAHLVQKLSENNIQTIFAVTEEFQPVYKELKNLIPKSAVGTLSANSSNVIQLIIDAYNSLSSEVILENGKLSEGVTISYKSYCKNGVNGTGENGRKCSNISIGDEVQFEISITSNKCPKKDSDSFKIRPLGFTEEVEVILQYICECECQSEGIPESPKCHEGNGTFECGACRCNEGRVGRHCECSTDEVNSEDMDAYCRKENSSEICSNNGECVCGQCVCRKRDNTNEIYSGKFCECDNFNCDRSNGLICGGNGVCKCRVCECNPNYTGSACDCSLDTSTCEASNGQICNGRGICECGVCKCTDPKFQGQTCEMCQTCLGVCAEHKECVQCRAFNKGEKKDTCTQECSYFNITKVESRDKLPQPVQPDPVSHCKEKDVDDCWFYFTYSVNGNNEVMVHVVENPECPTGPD

| IC50 [1] [µM] | IC50 [2] [µM] | SMILES |
| --- | --- | --- |
| < 0.1 | < 0.1 | C[C@@H]1CC[C@H](C(=O)N[C@@H](CC(=O)O)c2ccccc2)CN1CCCc1ccc2c(n1)NCCC2 [Compound 346] |
| > 1 | > 1 | O=C(O)C[C@H](O[C@@H]1CCCN(CCCc2ccc3c(n2)NCCC3)C1)c1ccccc1 [Compound 349] |
| > 1 | 0.1 to 1 | O=C(O)C[C@H](CO[C@@H]1CCCN(CCc2ccc3c(n2)NCCC3)C1)c1ccccc1 [Compound 353] |
| 0.1 to 1 | > 1 | O=C(O)C[C@@H](CO[C@@H]1CCCN(Cc2ccc3c(n2)NCCC3)C1)c1ccccc1 [Compound 355] |
| 0.1 to 1 | > 1 | O=C(O)C[C@H](CO[C@@H]1CCCN(Cc2ccc3c(n2)NCCC3)C1)c1ccccc1 [Compound 356] |
| < 0.1 | < 0.1 | O=C(NC[C@H](Nc1cncc(-c2ccccc2)c1)C(=O)O)[C@@H]1CCCN(CCCc2ccc3c(n2)NCCC3)C1 [Compound 361] |
| < 0.1 | < 0.1 | O=C(N[C@@H](CNC(=O)[C@@H]1CCCN(CCCc2ccc3c(n2)NCCC3)C1)C(=O)O)c1ccc(F)c(Cl)c1 [Compound 367] |
| < 0.1 | < 0.1 | O=C(N[C@@H](CNC(=O)[C@@H]1CCCN(CCCc2ccc3c(n2)NCCC3)C1)C(=O)O)c1cccc(Cl)c1 [Compound 373] |
| < 0.1 | < 0.1 | O=C(NC[C@@H](Nc1cncc(-c2ccccc2)c1)C(=O)O)[C@@H]1CCCN(CCCc2ccc3c(n2)NCCC3)C1 [Compound 376] |
| < 0.1 | < 0.1 | O=C(O)CC(NC(=O)[C@@H]1CCCN(CCCc2ccc3c(n2)NCCC3)C1)c1cccc(O)c1 (stereo partly shown) [Compound 377] |
| > 1 | 0.1 to 1 | C[C@H]1CCN(CCCc2ccc3c(n2)NCCC3)C[C@H]1C(=O)N[C@@H](CC(=O)O)c1ccccc1 [Compound 378] |
| < 0.1 | < 0.1 | C[C@@H]1C[C@H](C(=O)N[C@@H](CC(=O)O)c2ccccc2)CN(CCCc2ccc3c(n2)NCCC3)C1 [Compound 379] |
| > 1 | > 1 | O=C(O)[C@@H](CO[C@@H]1CCCN(CCCc2ccc3c(n2)NCCC3)C1)NC(=O)C12CCC(CC1)CC2 [Compound 382] |
| > 1 | 0.1 to 1 | O=C(O)[C@H](CCO[C@@H]1CCCN(CCCCc2ccc3c(n2)NCCC3)C1)Nc1ncnc2ccccc12 [Compound 385] |
| 0.1 to 1 | < 0.1 | O=C(O)[C@H](CO[C@@H]1CCCN(CCCc2ccc3c(n2)NCCC3)C1)Nc1ncnc2ccccc12 [Compound 388] |
| > 1 | > 1 | O=C(O)C[C@@H](O[C@@H]1CCCN(Cc2ccc3c(n2)NCCC3)C1)c1ccccc1 [Compound 390] |
| > 1 | > 1 | O=C(O)C[C@@H](O[C@@H]1CCCN(CCCCc2ccc3c(n2)NCCC3)C1)c1ccccc1 [Compound 391] |
| > 1 | > 1 | O=C(O)C[C@H](O[C@@H]1CCCN(Cc2ccc3c(n2)NCCC3)C1)c1ccccc1 [Compound 392] |
| > 1 | > 1 | O=C(O)[C@@H](CO[C@@H]1CCCN(CCCCc2ccc3c(n2)NCCC3)C1)c1ccccc1 [Compound 394] |
| > 1 | > 1 | O=C(O)[C@H](CO[C@@H]1CCCN(CCCCc2ccc3c(n2)NCCC3)C1)c1ccccc1 [Compound 395] |
| < 0.1 | < 0.1 | O=C(O)[C@H](CCO[C@@H]1CCCN(CCCCc2ccc3c(n2)NCCC3)C1)NC(=O)C12CCC(CC1)CC2 [Compound 399] |
| > 1 | > 1 | O=C(O)[C@@H](CO[C@@H]1CCCN(CCCCc2ccc3c(n2)NCCC3)C1)NC(=O)C12CCC(CC1)CC2 [Compound 401] |
| 0.1 to 1 | < 0.1 | O=C(O)[C@H](CO[C@@H]1CCCN(CCCCc2ccc3c(n2)NCCC3)C1)NC(=O)C12CCC(CC1)CC2 [Compound 402] |

More lines, now with the values behind:

| SMILES | IC50 [1] [µM] | IC50 [2] [µM] |
| --- | --- | --- |
| O=C(O)C[C@@H](NC(=O)[C@@H]1CCCN(CCCc2ccc3c(n2)NCCC3)C1)c1cc(F)cc(C2CC2)c1 [Compound 347] | < 0.1 | < 0.1 |
| Nc1nnc(C(=O)N[C@@H](CNC(=O)[C@@H]2CCCN(CCCc3ccc4c(n3)NCCC4)C2)C(=O)O)o1 [Compound 348] | < 0.1 | < 0.1 |
| O=C(O)[C@H](CO[C@@H]1CCCN(CCCc2ccc3c(n2)NCCC3)C1)c1ccccc1 [Compound 350] | > 1 | > 1 |
| O=C(O)C[C@@H](O[C@@H]1CCCN(CCCc2ccc3c(n2)NCCC3)C1)c1ccccc1 [Compound 351] | > 1 | > 1 |
| O=C(O)[C@@H](CO[C@@H]1CCCN(CCCc2ccc3c(n2)NCCC3)C1)c1ccccc1 [Compound 352] | > 1 | > 1 |
| O=C(O)C[C@@H](CO[C@@H]1CCCN(CCc2ccc3c(n2)NCCC3)C1)c1ccccc1 [Compound 354] | > 1 | > 1 |
| O=C(O)C[C@H](CO[C@@H]1CCCN(CCCCc2ccc3c(n2)NCCC3)C1)c1ccccc1 [Compound 357] | 0.1 to 1 | 0.1 to 1 |
| O=C(O)C[C@@H](CO[C@@H]1CCCN(CCCCc2ccc3c(n2)NCCC3)C1)c1ccccc1 [Compound 358] | < 0.1 | > 1 |
| O=C(N[C@@H](CNC(=O)[C@@H]1CCCN(CCCc2ccc3c(n2)NCCC3)C1)C(=O)O)c1c(F)cc(N2CCOC[C@@H]2C(F)(F)F)cc1F [Compound 359] | < 0.1 | < 0.1 |
| O=C(NC[C@H](Nc1ccc(-c2ccccc2)nc1)C(=O)O)[C@@H]1CCCN(CCCc2ccc3c(n2)NCCC3)C1 [Compound 360] | < 0.1 | < 0.1 |
| O=C(N[C@@H](CNC(=O)[C@@H]1CCCN(CCCc2ccc3c(n2)NCCC3)C1)C(=O)O)c1c(Cl)cccc1Cl [Compound 362] | < 0.1 | < 0.1 |
| O=C(N[C@@H](CNC(=O)[C@@H]1CCCN(CCCc2ccc3c(n2)NCCC3)C1)C(=O)O)c1cc(Cl)cc(Cl)c1 [Compound 363] | < 0.1 | < 0.1 |
| O=C(N[C@@H](CNC(=O)[C@@H]1CCCN(CCCc2ccc3c(n2)NCCC3)C1)C(=O)O)c1cc(Cl)ccc1Cl [Compound 364] | < 0.1 | < 0.1 |
| O=C(N[C@@H](CNC(=O)[C@@H]1CCCN(CCCc2ccc3c(n2)NCCC3)C1)C(=O)O)c1cccc(Cl)c1Cl [Compound 365] | < 0.1 | < 0.1 |
| O=C(N[C@@H](CNC(=O)[C@@H]1CCCN(CCCc2ccc3c(n2)NCCC3)C1)C(=O)O)C1CCC(F)(F)CC1 [Compound 366] | < 0.1 | < 0.1 |
| O=C(N[C@@H](CNC(=O)[C@@H]1CCCN(CCCc2ccc3c(n2)NCCC3)C1)C(=O)O)c1ccc(Cl)c(Cl)c1 [Compound 368] | < 0.1 | < 0.1 |
| O=C(N[C@@H](CNC(=O)[C@@H]1CCCN(CCCc2ccc3c(n2)NCCC3)C1)C(=O)O)c1ccc(C2CC2)cc1 [Compound 369] | < 0.1 | < 0.1 |

| SMILES | IC50 [1] [µM] | IC50 [2] [µM] |
| --- | --- | --- |
| O=C(N[C@@H](CNC(=O)[C@@H]1CCCN(CCCc2ccc3c(n2)NCCC3)C1)C(=O)O)c1ccccc1C1CC1 [Compound 371] | < 0.1 | < 0.1 |
| O=C(N[C@@H](CNC(=O)[C@@H]1CCCN(CCCc2ccc3c(n2)NCCC3)C1)C(=O)O)c1ccc(Cl)cc1 [Compound 372] | < 0.1 | < 0.1 |
| O=C(O)C[C@@H](NC(=O)[C@@H]1CCCN(CCCc2ccc3c(n2)NCCC3)C1)c1cnc2ccccc2n1 [Compound 374] | 0.1 to 1 | < 0.1 |
| O=C(NC[C@@H](Nc1ccc(-c2ccccc2)nc1)C(=O)O)[C@@H]1CCCN(CCCc2ccc3c(n2)NCCC3)C1 [Compound 375] | < 0.1 | < 0.1 |
| C[C@H]1C[C@H](C(=O)N[C@@H](CC(=O)O)c2ccccc2)CN(CCCc2ccc3c(n2)NCCC3)C1 [Compound 380] | 0.1 to 1 | < 0.1 |
| O=C(O)[C@@H](CCO[C@@H]1CCCN(Cc2ccc3c(n2)NCCC3)C1)NC(=O)C12CCC(CC1)CC2 [Compound 381] | < 0.1 | < 0.1 |
| O=C(O)[C@@H](CCO[C@@H]1CCCN(CCc2ccc3c(n2)NCCC3)C1)NC(=O)C12CCC(CC1)CC2 [Compound 383] | < 0.1 | 0.1 to 1 |
| O=C(O)[C@@H](CCO[C@@H]1CCCN(CCCCc2ccc3c(n2)NCCC3)C1)NC(=O)C12CCC(CC1)CC2 [Compound 384] | > 1 | > 1 |
| O=C(O)[C@H](CCO[C@@H]1CCCN(CCc2ccc3c(n2)NCCC3)C1)Nc1ncnc2ccccc12 [Compound 386] | > 1 | > 1 |
| O=C(O)[C@H](CCO[C@@H]1CCCN(Cc2ccc3c(n2)NCCC3)C1)Nc1ncnc2ccccc12 [Compound 387] | < 0.1 | 0.1 to 1 |
| O=C(O)[C@@H](CO[C@@H]1CCCN(Cc2ccc3c(n2)NCCC3)C1)c1ccccc1 [Compound 389] | > 1 | > 1 |
| O=C(O)C[C@H](O[C@@H]1CCCN(CCCCc2ccc3c(n2)NCCC3)C1)c1ccccc1 [Compound 393] | > 1 | > 1 |
| O=C(O)[C@H](CO[C@@H]1CCCN(Cc2ccc3c(n2)NCCC3)C1)c1ccccc1 [Compound 396] | > 1 | > 1 |
| O=C(O)[C@H](CCO[C@@H]1CCCN(Cc2ccc3c(n2)NCCC3)C1)NC(=O)C12CCC(CC1)CC2 [Compound 397] | 0.1 to 1 | > 1 |
| O=C(O)[C@H](CCO[C@@H]1CCCN(CCc2ccc3c(n2)NCCC3)C1)NC(=O)C12CCC(CC1)CC2 [Compound 398] | < 0.1 | < 0.1 |
| O=C(O)[C@H](CO[C@@H]1CCCN(CCCc2ccc3c(n2)NCCC3)C1)NC(=O)C12CCC(CC1)CC2 [Compound 400] | < 0.1 | < 0.1 |
